In PMC10983791 (ACS chemical biology, 2023):
“Also recorded” adds a separate entry of the source.

Tests used:
Type in all cases: biochemical
HNMT [1] = molecular target: T1, HNMT (Homo sapiens, UniProt P50135); assay: MTase-Glo HNMT inhibition assay; conditions: for HNMT activity and specificity in SAR analysis: SAR expansion of diazepine chemotype; for activity in HTS and follow-up: MTase-Glo, top dose 40 μM; for potency loss: relative to the best analogs with pyridine nitrogen
GNMT [2] = molecular target: T2, GNMT (Homo sapiens, UniProt Q14749); assay: MTase-Glo GNMT inhibition assay; conditions: for activity in HTS and follow-up: MTase-Glo, top dose 40 μM
T2 sequence (Q14749 1-295): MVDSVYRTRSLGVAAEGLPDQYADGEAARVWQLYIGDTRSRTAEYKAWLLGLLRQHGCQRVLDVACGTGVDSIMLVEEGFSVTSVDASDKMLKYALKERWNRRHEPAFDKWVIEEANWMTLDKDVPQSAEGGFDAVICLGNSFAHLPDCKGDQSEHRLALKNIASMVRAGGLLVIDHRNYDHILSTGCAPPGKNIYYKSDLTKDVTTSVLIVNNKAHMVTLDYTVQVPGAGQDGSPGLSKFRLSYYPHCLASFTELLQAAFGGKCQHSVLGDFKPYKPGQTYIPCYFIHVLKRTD

PNMT [3] = molecular target: T3, PNMT (Homo sapiens, UniProt P11086); assay: MTase-Glo PNMT inhibition assay; conditions: for activity in HTS and follow-up: MTase-Glo, top dose 40 μM
T3 sequence (P11086 1-282): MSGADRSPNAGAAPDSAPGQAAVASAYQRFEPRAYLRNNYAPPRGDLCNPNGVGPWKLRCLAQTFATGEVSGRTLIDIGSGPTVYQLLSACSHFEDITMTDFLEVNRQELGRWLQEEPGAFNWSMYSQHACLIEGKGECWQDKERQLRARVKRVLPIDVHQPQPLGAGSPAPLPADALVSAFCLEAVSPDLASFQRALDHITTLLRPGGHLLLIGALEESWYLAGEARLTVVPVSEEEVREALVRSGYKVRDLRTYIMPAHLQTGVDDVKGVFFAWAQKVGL

COMT [4] = molecular target: T4, COMT (Homo sapiens, UniProt P21964); assay: MTase-Glo COMT inhibition assay; conditions: for activity in HTS and follow-up: MTase-Glo, top dose 40 μM
T4 sequence (P21964 1-271): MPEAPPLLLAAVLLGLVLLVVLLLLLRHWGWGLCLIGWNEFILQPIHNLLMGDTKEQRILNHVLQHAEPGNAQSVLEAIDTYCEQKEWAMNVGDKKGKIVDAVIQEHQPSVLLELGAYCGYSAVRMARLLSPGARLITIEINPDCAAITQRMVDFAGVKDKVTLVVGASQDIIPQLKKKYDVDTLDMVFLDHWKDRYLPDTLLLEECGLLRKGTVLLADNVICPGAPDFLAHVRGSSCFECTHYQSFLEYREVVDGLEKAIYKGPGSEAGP

NNMT [5] = molecular target: T5, NNMT (Homo sapiens, UniProt P40261); assay: MTase-Glo NNMT inhibition assay; conditions: for activity in HTS and follow-up: MTase-Glo, top dose 40 μM
T5 sequence (P40261 1-264): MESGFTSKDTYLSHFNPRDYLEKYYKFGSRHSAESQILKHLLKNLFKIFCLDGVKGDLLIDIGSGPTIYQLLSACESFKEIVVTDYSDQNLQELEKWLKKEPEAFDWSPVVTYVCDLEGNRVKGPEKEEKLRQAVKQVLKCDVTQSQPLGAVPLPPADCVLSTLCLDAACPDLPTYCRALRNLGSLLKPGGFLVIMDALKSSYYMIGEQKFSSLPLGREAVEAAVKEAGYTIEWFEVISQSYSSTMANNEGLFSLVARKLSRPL

GAMT = GAMT (Homo sapiens, UniProt Q14353); assay: MTase-Glo GAMT inhibition assay; conditions: for activity in HTS and follow-up: MTase-Glo, top dose 40 μM
[6] = test system: MTase-Glo coupled reporter assay; assay: MTase-Glo counter-assay; conditions: 1 μM SAH in place of enzyme; for result in counter-assay replicates: two counter-assay replicates
HNMT [7] = molecular target: T1, HNMT; assay: LC-MS orthogonal assay, HNMT; conditions: for response in MS assay: LC-MS dose response
COMT [8] = molecular target: T4, COMT; assay: LC-MS orthogonal assay, COMT
NNMT [9] = molecular target: T5, NNMT; assay: LC-MS orthogonal assay, NNMT
PNMT [10] = molecular target: T3, PNMT; assay: LC-MS orthogonal assay, PNMT
GNMT [11] = molecular target: T2, GNMT; assay: LC-MS orthogonal assay, GNMT
GNMT [12] = molecular target: T2, GNMT; assay: KM determination by method of initial rates, GNMT; conditions: read-out: KM, substrate, SAM 100 μM, MTase-Glo readout
[13] = 11-point dose response, up to 50 μM

T1 sequence (P50135 whole entry): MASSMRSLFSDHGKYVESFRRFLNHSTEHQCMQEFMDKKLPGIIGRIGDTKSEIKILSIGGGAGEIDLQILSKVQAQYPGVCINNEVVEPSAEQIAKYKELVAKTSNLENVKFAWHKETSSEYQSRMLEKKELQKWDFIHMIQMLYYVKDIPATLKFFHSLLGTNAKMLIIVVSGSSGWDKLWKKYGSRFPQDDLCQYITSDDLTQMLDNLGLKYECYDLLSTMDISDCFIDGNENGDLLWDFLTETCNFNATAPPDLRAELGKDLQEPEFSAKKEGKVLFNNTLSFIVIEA

In the case of c1cncc(Nc2cc3c(cn2)CN(Cc2c[nH]c4ccccc24)CCN3)c1 [NCGC00411220], the “HNMT activity and specificity in SAR analysis” value (“HNMT activity and specificity” below) (HNMT [1]; 11-point dose response) is reported as “reduced specificity”.

For Fc1ccccc1CN1CCNc2cc(Nc3cccnc3)ncc2C1 [NCGC00411168], the “HNMT activity and specificity” value (HNMT [1]; 11-point dose response) was “showed best activity”.

With Cc1ccc(C(=O)Nc2cnn(-c3ncncc3N3CCC(C)CC3)c2)s1 [NCGC00519779] the “activity in HTS and follow-up” value (HNMT [1]) was “showed activity against all of the SMMTases tested”, the “activity in HTS and follow-up” value (GNMT [2]) was “showed activity against all of the SMMTases tested” and the “activity in HTS and follow-up” value (PNMT [3]) was “showed activity against all of the SMMTases tested”. For the same compound, the “activity in HTS and follow-up” value (COMT [4]) was “showed activity against all of the SMMTases tested”, the “activity in HTS and follow-up” value (NNMT [5]) was “showed activity against all of the SMMTases tested” and the “activity in HTS and follow-up” value (GAMT) was “showed activity against all of the SMMTases tested”. The “result in counter-assay replicates” value [6] was “conflicting results”, the “response in MS assay” value (HNMT [7]) was “did not inhibit any SMMTase” and the “response in MS assay” value (COMT [8]) was “did not inhibit any SMMTase”. For the same compound, the “response in MS assay” value (NNMT [9]) was “did not inhibit any SMMTase”, the “response in MS assay” value (PNMT [10]) was “did not inhibit any SMMTase” and the “response in MS assay” value (GNMT [11]) was “did not inhibit any SMMTase”.

For c1ccc(Nc2cc3c(cn2)CN(Cc2c[nH]c4ccccc24)CCN3)cc1 [NCGC00411050], the potency loss (HNMT [1]) was “at least 10 fold”.

Compound NCC(=O)O [Glycine] has a Km (GNMT [12]) of over 500 µM.

In the case of c1cncc(Nc2cc3c(cn2)CN(Cc2ccsc2)CCN3)c1 [NCGC00411044], the “HNMT activity and specificity” value (HNMT [1]; 11-point dose response) is reported as “most active HNMT-selective compounds; also recorded: showed best activity”, the IC50 (HNMT [1]; read-out: IC50, MTase Glo assay) is reported as 2450 nM and the IC50 (HNMT [7]; read-out: IC50, MS assay, LC-MS readout of SAH, n=3) is reported as 670 nM. The “response in MS assay” value (COMT [8]) was “No response”, the “response in MS assay” value (NNMT [9]) was “No response” and the “response in MS assay” value (PNMT [10]) was “No response”. For the same compound, the “response in MS assay” value (GNMT [11]) was “No response”.

Cn1cc(CN2CCNc3cc(Nc4cccnc4)ncc3C2)cn1 [NCGC00411154] was tested, and the “HNMT activity and specificity” value (HNMT [1]; 11-point dose response) was “reduce activity”.

c1ccc(Nc2cc3c(cn2)CN(Cc2cc[nH]n2)CCN3)cc1 [NCGC00411115] was tested, and the potency loss (HNMT [1]) was “at least 10 fold”.

For Nc1ncnc2c1ncn2[C@@H]1O[C@H](C[C@@H](N)CC[C@H](N)C(=O)O)[C@@H](O)[C@H]1O [sinefungin, reference compound], the “inhibition by positive control” value (HNMT [1]; [13]) was “inhibitable”, the “inhibition by positive control” value (GNMT [2]; [13]) was “All MTases except GNMT were inhibitable” and the “inhibition by positive control” value (PNMT [3]; [13]) was “inhibitable”. For the same compound, the “inhibition by positive control” value (COMT [4]; [13]) was “inhibitable”, the “inhibition by positive control” value (NNMT [5]; [13]) was “inhibitable” and the “inhibition by positive control” value (GAMT; [13]) was “inhibitable”. For the same compound, the “inhibition of counter-assay by positive control” value [6] was “not inhibited”.

In the case of COc1ccc(C(=O)Nc2cnn(-c3ncncc3N3CCC(C)CC3)c2)cc1 [NCGC00519772], the “activity in HTS and follow-up” value (HNMT [1]) is reported as “showed activity against all of the SMMTases tested”, the “activity in HTS and follow-up” value (GNMT [2]) is reported as “showed activity against all of the SMMTases tested” and the “activity in HTS and follow-up” value (PNMT [3]) is reported as “showed activity against all of the SMMTases tested”. The “activity in HTS and follow-up” value (COMT [4]) was “showed activity against all of the SMMTases tested”, the “activity in HTS and follow-up” value (NNMT [5]) was “showed activity against all of the SMMTases tested” and the “activity in HTS and follow-up” value (GAMT) was “showed activity against all of the SMMTases tested”. The “result in counter-assay replicates” value [6] was “conflicting results”, the “response in MS assay” value (HNMT [7]) was “did not inhibit any SMMTase” and the “response in MS assay” value (COMT [8]) was “did not inhibit any SMMTase”. For the same compound, the “response in MS assay” value (NNMT [9]) was “did not inhibit any SMMTase”, the “response in MS assay” value (PNMT [10]) was “did not inhibit any SMMTase” and the “response in MS assay” value (GNMT [11]) was “did not inhibit any SMMTase”.

With Cc1cc(-c2cc3c(cn2)CN(Cc2cccs2)CCN3)ccn1 [NCGC00411196] the potency loss (HNMT [1]) was “at least 10 fold”.

With Oc1ccccc1CN1CCNc2cc(Nc3ccccc3)ncc2C1 [NCGC00411199] the potency loss (HNMT [1]) was “at least 10 fold”.

In the case of c1cncc(Nc2cc3c(cn2)CN(CC2CCOC2)CCN3)c1 (centres unmarked) [NCGC00411147], the “HNMT activity and specificity” value (HNMT [1]; 11-point dose response) is reported as “potency loss”.
